Experiment [1] concerns Nucleic Acid. As to the kind of experiment: Binding affinity to Bacillus subtilis AM1A antiterminator model RNA assessed as increase in fluorescence at 10 uM by FRET assay relative to control. Type of experiment: nucleic-acid assay.
In experiment [2] the test system is Nucleic Acid. As to the kind of experiment: Binding affinity to Bacillus subtilis AM1A C11U antiterminator model RNA variant assessed as increase in fluorescence by FRET assay relative to control. Type of experiment: nucleic-acid assay. Set-up: concentration or dose not given beside the values.

Regarding `O=C1N[C@H](CN2CCN(c3ccccc3)CC2)[C@@H](COC(=O)c2cc(OCc3ccccc3)c(OCc3ccccc3)c(OCc3ccccc3)c2)O1`, the Activity was 14.3% in experiment [1] and 18.6% in experiment [2].
Take `CCCCCc1ccc(NC(=O)OC[C@H]2OC(=O)N[C@@H]2CN2CCN(c3ccccc3)CC2)cc1`: the Activity stood at 10.6% in experiment [1] and 11.1% in experiment [2].
For the compound `CC(=O)c1ccc(NC(=O)OC[C@H]2OC(=O)N[C@@H]2CN2CCN(c3ccccc3)CC2)cc1`, the Activity in experiment [1] is 7.7%; in experiment [2] it was 13.4%.
Turning to `Cc1c(C(=O)OC[C@H]2OC(=O)N[C@@H]2CN2CCN(c3ccccc3)CC2)cccc1[N+](=O)[O-]`, the Activity in experiment [1] is 23.3%; in experiment [2] it was 24.5%.
In the case of `O=C(NCc1ccccc1)OC[C@H]1OC(=O)N[C@@H]1CN1CCN(c2ccccc2)CC1`, the Activity in experiment [1] amounted to 6.1%; in experiment [2] it was 11.7%.
Regarding `CCCNC(=O)OC[C@H]1OC(=O)N[C@@H]1CN1CCN(c2ccccc2)CC1`, the Activity turned out to be 10.3% in experiment [1] and 9.6% in experiment [2].
Turning to `O=C(COc1ccccc1)OC[C@H]1OC(=O)N[C@@H]1CN1CCN(c2ccccc2)CC1`, the Activity in experiment [1] amounted to 9.5%; in experiment [2], 9.4%.
The corresponding values for `CCCCNC(=O)OC[C@H]1OC(=O)N[C@@H]1CN1CCN(c2ccccc2)CC1` are 10.5% and 14%.
As for `CC(C)(C)C(=O)OC[C@H]1OC(=O)N[C@@H]1CN1CCN(c2ccccc2)CC1`, the Activity in experiment [1] is 7.1%; in experiment [2] it was 13.2%.
`O=C1N[C@H](CN2CCN(c3ccccc3)CC2)[C@@H](COC(=O)c2ccc(Cl)cc2)O1`: the values for the Activity in experiment [1] and in experiment [2] were 29.1% and 22.8%, respectively.
In the case of `O=C(Nc1ccc(Cl)c(Cl)c1)OC[C@H]1OC(=O)N[C@@H]1CN1CCN(c2ccccc2)CC1`, the values for the Activity in experiment [1] and in experiment [2] were 8.9% and 14.7%, respectively.
In the case of `O=C(Nc1cccc([N+](=O)[O-])c1)OC[C@H]1OC(=O)N[C@@H]1CN1CCN(c2ccccc2)CC1`, the Activity in experiment [1] is -1.1%; in experiment [2], 0.2%.
In the case of `CC(C)(C)OC(=O)NCCCCC(=O)OC[C@H]1OC(=O)N[C@@H]1CN1CCN(c2ccccc2)CC1`, the Activity in experiment [1] was 29.4%; in experiment [2] it was 27.7%.
For `O=C1N[C@H](CN2CCN(c3ccccc3)CC2)[C@@H](COC(=O)C2CCCCC2)O1`, in that order: 19.5% and 20.7%.
In the case of `CCCCCC(=O)OC[C@H]1OC(=O)N[C@@H]1CN1CCN(c2ccccc2)CC1`, the Activity in experiment [1] was 15.5%; in experiment [2] it was 21%.
As for `CC(C)=CCCC(C)CC(=O)OC[C@H]1OC(=O)N[C@@H]1CN1CCN(c2ccccc2)CC1` (stereo partly specified), the Activity in experiment [1] is 38.9%; in experiment [2], 42.4%.
As to `O=C(CCCC1CCCCC1)OC[C@H]1OC(=O)N[C@@H]1CN1CCN(c2ccccc2)CC1`, the values for the Activity in experiment [1] and in experiment [2] were 31.8% and 29%, respectively.
As to `CC(C)(C)OC(=O)N[C@H](C(=O)OC[C@H]1OC(=O)N[C@@H]1CN1CCN(c2ccccc2)CC1)c1ccccc1`, the results for the Activity in experiment [1] and in experiment [2] were 26.7% and 19.4%, respectively.
`COc1cccc(C(=O)OC[C@H]2OC(=O)N[C@@H]2CN2CCN(c3ccccc3)CC2)c1`: the Activity in experiment [1] worked out at 23.8%; in experiment [2], 24.7%.
Turning to `CCCCCCNC(=O)OC[C@H]1OC(=O)N[C@@H]1CN1CCN(c2ccccc2)CC1`, the Activity in experiment [1] was determined as 17.4%; in experiment [2], 23.7%.
`O=C(CCCCCc1ccccc1)OC[C@H]1OC(=O)N[C@@H]1CN1CCN(c2ccccc2)CC1`: the values for the Activity in experiment [1] and in experiment [2] were 32.6% and 30.9%, respectively.
For `O=C(Nc1ccc([N+](=O)[O-])cc1)OC[C@H]1OC(=O)N[C@@H]1CN1CCN(c2ccccc2)CC1`, the Activity in experiment [1] was -1.8%; in experiment [2], -4.9%.
Consider `O=C1N[C@H](CN2CCN(c3ccccc3)CC2)[C@@H](COC(=O)c2ccccc2F)O1`, for which the Activity in experiment [1] turned out to be 18.5%; in experiment [2], 20.4%.
As for `COc1cccc(CC(=O)OC[C@H]2OC(=O)N[C@@H]2CN2CCN(c3ccccc3)CC2)c1`, the figures for the Activity in experiment [1] and in experiment [2] were 18.9% and 19.6%, respectively.
Turning to `O=C1N[C@H](CN2CCN(c3ccccc3)CC2)[C@@H](COC(=O)c2ccccc2I)O1`, the Activity in experiment [1] came out at 28.6%; in experiment [2], 22.4%.
Take `CCCCCCCC(=O)OC[C@H]1OC(=O)N[C@@H]1CN1CCN(c2ccccc2)CC1`: the Activity in experiment [1] was 18.1%; in experiment [2], 25.4%.
Turning to `CC(C)(C)NC(=O)OC[C@H]1OC(=O)N[C@@H]1CN1CCN(c2ccccc2)CC1`, the Activity in experiment [1] is 8.9%; in experiment [2], 8.7%.
With `CCc1ccc(NC(=O)OC[C@H]2OC(=O)N[C@@H]2CN2CCN(c3ccccc3)CC2)cc1`, the results for the Activity in experiment [1] and in experiment [2] were 18.3% and 19.1%, respectively.
As to `Cc1cccc(C(C)(C)C)c1NC(=O)OC[C@H]1OC(=O)N[C@@H]1CN1CCN(c2ccccc2)CC1`, the Activity in experiment [1] amounted to 14.8%; in experiment [2] it was 15.4%.
Turning to `O=C(Cc1ccc(-c2ccccc2)cc1)OC[C@H]1OC(=O)N[C@@H]1CN1CCN(c2ccccc2)CC1`, the Activity was 25.3% in experiment [1] and 22.3% in experiment [2].
Take `Cc1cccc(NC(=O)OC[C@H]2OC(=O)N[C@@H]2CN2CCN(c3ccccc3)CC2)c1`: the values for the Activity in experiment [1] and in experiment [2] were 16.8% and 26.7%, respectively.
For `O=C1N[C@H](CN2CCN(c3ccccc3)CC2)[C@@H](COC(=O)Oc2ccccc2)O1`, in that order: 12.4% and 21.3%.
As for `O=C(CCc1ccccc1)OC[C@H]1OC(=O)N[C@@H]1CN1CCN(c2ccccc2)CC1`, the Activity in experiment [1] is 20.6%; in experiment [2] it was 26.1%.
Take `CC(C)CCC(=O)OC[C@H]1OC(=O)N[C@@H]1CN1CCN(c2ccccc2)CC1`: the Activity in experiment [1] worked out at 15%; in experiment [2] it was 20.2%.
Regarding `O=C1N[C@H](CN2CCN(c3ccccc3)CC2)[C@@H](COC(=O)c2ccc([N+](=O)[O-])cc2)O1`, the Activity in experiment [1] came to 13.1%; in experiment [2] it was 15.2%.
For `O=C1N[C@H](CN2CCN(c3ccccc3)CC2)[C@@H](COC(=O)c2c(Cl)cccc2Cl)O1`, in that order: 15.3% and 16.2%.
Turning to `COc1ccc(NC(=O)OC[C@H]2OC(=O)N[C@@H]2CN2CCN(c3ccccc3)CC2)cc1`, the figures for the Activity in experiment [1] and in experiment [2] were 7.8% and 7.7%, respectively.
Regarding `N#Cc1ccccc1C(=O)OC[C@H]1OC(=O)N[C@@H]1CN1CCN(c2ccccc2)CC1`, the Activity is 7.3% in experiment [1] and 16.7% in experiment [2].
In the case of `O=C1N[C@H](CN2CCN(c3ccccc3)CC2)[C@@H](COC(=O)c2ccccc2Oc2ccccc2)O1`, the Activity was 30.8% in experiment [1] and 26.5% in experiment [2].
As for `COc1ccc(CC(=O)OC[C@H]2OC(=O)N[C@@H]2CN2CCN(c3ccccc3)CC2)cc1`, the Activity in experiment [1] is 13.7%; in experiment [2] it was 18.8%.
As to `O=C1N[C@H](CN2CCN(c3ccccc3)CC2)[C@@H](COC(=O)c2ccccc2)O1`, the Activity is 14.8% in experiment [1] and 18.6% in experiment [2].
The corresponding values for `CCCC(=O)OC[C@H]1OC(=O)N[C@@H]1CN1CCN(c2ccccc2)CC1` are 10.1% and 19.7%.
For `O=C(CC1CC2CCC1C2)OC[C@H]1OC(=O)N[C@@H]1CN1CCN(c2ccccc2)CC1` (stereo partly specified), the Activity is 29.5% in experiment [1] and 27.4% in experiment [2].
Regarding `O=C1N[C@H](CN2CCN(c3ccccc3)CC2)[C@@H](COC(=O)c2ccccc2Cl)O1`, the values for the Activity in experiment [1] and in experiment [2] were 30.4% and 28.8%, respectively.
For `O=C(Nc1ccccc1)OC[C@H]1OC(=O)N[C@@H]1CN1CCN(c2ccccc2)CC1`, in that order: 8.4% and 11.2%.
Consider `O=C(Cc1ccccc1)OC[C@H]1OC(=O)N[C@@H]1CN1CCN(c2ccccc2)CC1`, for which the figures for the Activity in experiment [1] and in experiment [2] were 8.5% and 15.9%, respectively.
For `O=C(Cc1ccc([N+](=O)[O-])cc1)OC[C@H]1OC(=O)N[C@@H]1CN1CCN(c2ccccc2)CC1`, in that order: 9.1% and 16.5%.
Consider `O=C1N[C@H](CN2CCN(c3ccccc3)CC2)[C@@H](COC(=O)c2ccco2)O1`, for which the Activity in experiment [1] stood at 6.4%; in experiment [2], 14.7%.
Regarding `Cc1ccc(C(=O)OC[C@H]2OC(=O)N[C@@H]2CN2CCN(c3ccccc3)CC2)cc1`, the Activity in experiment [1] is 27.4%; in experiment [2], 27.5%.
For `CN(C)c1cccc(C(=O)OC[C@H]2OC(=O)N[C@@H]2CN2CCN(c3ccccc3)CC2)c1`, in that order: 24.6% and 27.1%.
The corresponding values for `CC(C)CC(=O)OC[C@H]1OC(=O)N[C@@H]1CN1CCN(c2ccccc2)CC1` are 9.5% and 14%.
As for `O=C(Cc1ccc(Cl)c(Cl)c1)OC[C@H]1OC(=O)N[C@@H]1CN1CCN(c2ccccc2)CC1`, the Activity in experiment [1] was determined as 29.1%; in experiment [2] it was 28.9%.
Regarding `CC(C)(C)OC(=O)N[C@@H](C(=O)OC[C@H]1OC(=O)N[C@@H]1CN1CCN(c2ccccc2)CC1)c1ccccc1`, the Activity in experiment [1] turned out to be 39.6%; in experiment [2], 42.6%.

These data come from ChEMBL document CHEMBL1811764, “Structure-activity studies of RNA-binding oxazolidinone derivatives” (Bioorg Med Chem Lett, 2011).
